This is an account of results in ChEMBL document CHEMBL1147372, “Bioactive metabolites from Sicilian marine fennel, Crithmum maritimum” (J Nat Prod, 1993).

≈ marks a conversion by molar mass, not a printed value.

This data set in a line: Toxicity in Artemia salina after 24 hrs. The class given is organism-based. The following applies: in vivo.
For the molecule `C=C[C@@H](O)C#CC#C[C@@H](O)/C=C\CCCCCCC` [FALCARINDIOL], the LC50 (in general, the concentration that kills 50% of the test population) at 24 h came to 3.32 µg/mL (≈ 12.8 µM).

In turn, `COc1cc(C=O)ccc1OC/C=C(\C)CCC=C(C)C` [GERANYLOXYVANILLIN] showed a median lethal concentration (LC50) at 24 h of 85.8 µg/mL (≈ 298 µM).

As to `C=C[C@H](O)C#CC#CC/C=C\CCCCCCC` [FALCARINOL], the LC50 at 24 h is 0.67 µg/mL (≈ 2.74 µM). Against the preceding molecule, the LC50 at 24 h is about 130-fold lower.
